Data reported in US10080748B2, “Use of flap inhibitors to reduce neuroinflammation mediated injury in the central nervous system” (Bioscience Pharma Partners, LLC, priority 2014, dated 2018).

Legend:
[1] = system: rats subjected to FPI (TBI model); experiment: Volume of cell death 72 hours after TBI (rat FPI); type: in vivo; conditions: 6 mg/kg IV 30 minutes prior to TBI; measured 72 hours later
Method: Craniotomy and lateral fluid percussion injury (FPI) were performed using a previously validated and published procedure. Farias S, et al. J. Neurotraum, 26, 1977-1986, 2009; Frey L. C. et al. J. Neurosci. Methods 177, 267-272, 2009. Throughout the specification animals subjected to this protocol are referred to as having a TBI since this treatment protocol is a TBI model. Briefly, rats were anesthetized with 3-5% isoflurane, isosol, VEDCO Inc., St. Joseph, Mo., via nose cone and mounted in a stereotaxic head frame. A 3 millimeter (mm) craniotomy was created and centered at 3 mm caudal to bregma and 3.5 mm left of the sagittal suture, keeping the exposed dura intact. One steel support screw was embedded in the skull on the contralateral side. A Luer-Lock hub with an inside diameter of 3.5 mm was centered over the craniotomy and bonded to the skull with cyanoacrylate adhesive and capped. Dental acrylic, Snap, Parka, Inc., Edgewood, N.J., was poured around the huh and screw. After the acrylic hardened antibiotic ointment was applied around the cap and the animals were returned to their cages. […] Moistened food pellets were provided after injury, and all animals were monitored daily for well-being and weight changes. […]
Rats were administered a single-dose of the FLAP inhibitor MK-886, 6 mg/kg IV by tail vein, 30 minutes prior to TBI. […] Results are expressed as the average±SEM. […]

[2] = system: rats subjected to FPI (TBI model); experiment: Radial arms water maze (RAWM) after TBI (rat FPI); type: in vivo
Method: Craniotomy and lateral fluid percussion injury (FPI) were performed using a previously validated and published procedure. Farias S, et al. J. Neurotraum, 26, 1977-1986, 2009; Frey L. C. et al. J. Neurosci. Methods 177, 267-272, 2009. Throughout the specification animals subjected to this protocol are referred to as having a TBI since this treatment protocol is a TBI model. Briefly, rats were anesthetized with 3-5% isoflurane, isosol, VEDCO Inc., St. Joseph, Mo., via nose cone and mounted in a stereotaxic head frame. A 3 millimeter (mm) craniotomy was created and centered at 3 mm caudal to bregma and 3.5 mm left of the sagittal suture, keeping the exposed dura intact. One steel support screw was embedded in the skull on the contralateral side. A Luer-Lock hub with an inside diameter of 3.5 mm was centered over the craniotomy and bonded to the skull with cyanoacrylate adhesive and capped. Dental acrylic, Snap, Parka, Inc., Edgewood, N.J., was poured around the huh and screw. After the acrylic hardened antibiotic ointment was applied around the cap and the animals were returned to their cages. The next day, approximately 15-20 hours later, animals were anesthetized with isoflurane in an induction chamber, immediately connected to the FPI apparatus, and received a 20 millisecond (ms) pulse of pressurized sterile saline at 2.7 atmospheres (atm) of pressure to simulate a moderate severity impact on the intact dural surface through the craniotomy before awakening from anesthesia. […] All animals received a subcutaneous injection of the analgesic, buprenorphine, 0.05 milligram/kilogram (mg/kg) Buprenex, prior to craniotomy, and subsequent injections every 12 hours for two days. Moistened food pellets were provided after injury, and all animals were monitored daily for well-being and weight changes.
The indole FLAP inhibitor MK-886 was prepared at a dose of 2.5 milligram/milliliter (mg/ml), dissolved in dimethyl sulfoxide (DMSO) and then diluted with 0.9% saline to 10% DMSO. The rats were briefly anesthetized with 3-3.5% isoflurane and either […] at a dose of 6 mg/kg or vehicle was administered intravenously (IV) by tail vein injection. […]
The radial arms water maze (RAWM) consists of six 50 centimeter (cm) radial arms emanating from a circular area in a 160 cm diameter tank of 20.5° C. water, surrounded by 4 walls, each with a unique pattern. […] The start arm for each trial was determined in a pseudorandom fashion with three randomized sequences of the live non-goal arms. […] Videos for each of the 30 trials per animal were analyzed using Topscan (Cleversys Inc.) tracking software for errors and perseverance duration. […]
All data shown are mean+/−standard error of the mean unless otherwise noted. Results were analyzed in SPSS 20 (IBM) or Prism 5.0 (GraphPad). […]

[3] = system: human whole blood; experiment: Human whole blood bioassay of LTB4, 5-HETE and AA production; type: cell-based; conditions: human whole blood; data not shown
Source text: The results are for the effects of these two FLAP inhibitors on LTB4 production and 5-HETE production. It is known that indole-acetic acid FLAP inhibitors like MK-886, MK-591 display high plasma protein binding. Thus, the potencies of these FLAP inhibitors for blocking leukotrienes in vivo are about 100 fold higher than the affinity of the inhibitors for FLAP binding. The inventors developed a bioassay that closely predicts the in vivo potency of FLAP inhibitors using human whole blood. Briefly, whole blood is incubated with a calcium ionophore like […] or zymosan in the absence or presence of increasing concentrations of a FLAP inhibitor. After incubation at 37° C. for 30 minutes, the samples are centrifuged and the plasma supernatant is subjected to reverse phase liquid chromatography coupled to tandem mass spectrometry to quantify levels of LTB4, 5-HETE, and AA production. Drug IC50 values are determined by non-linear regression analysis (GraphPad Prism).). […] As FLAP inhibitors are poorly water soluble drugs, the inventors have shown that such hydrophobic drugs can be formulated in a carrier comprising one or more vegetable oils, such as olive oil, and phosphatidylserine that are found on the Generally Accepted as Safe (GRAS) list and that such drugs can then be rapidly delivered and targeted to the brain and upper spinal cord. Hanson L R, et al, Drug Delivery 19(3):149-54, 2012.

[4] = system: rats subjected to FPI (TBI model); experiment: Rotarod vestibulomotor performance after TBI (rat FPI); type: in vivo; conditions: administered 15 minutes after TBI
Method: Craniotomy and lateral fluid percussion injury (FPI) were performed using a previously validated and published procedure. Farias S, et al. J. Neurotraum, 26, 1977-1986, 2009; Frey L. C. et al. J. Neurosci. Methods 177, 267-272, 2009. Throughout the specification animals subjected to this protocol are referred to as having a TBI since this treatment protocol is a TBI model. Briefly, rats were anesthetized with 3-5% isoflurane, isosol, VEDCO Inc., St. Joseph, Mo., via nose cone and mounted in a stereotaxic head frame. A 3 millimeter (mm) craniotomy was created and centered at 3 mm caudal to bregma and 3.5 mm left of the sagittal suture, keeping the exposed dura intact. One steel support screw was embedded in the skull on the contralateral side. A Luer-Lock hub with an inside diameter of 3.5 mm was centered over the craniotomy and bonded to the skull with cyanoacrylate adhesive and capped. Dental acrylic, Snap, Parka, Inc., Edgewood, N.J., was poured around the huh and screw. […] Moistened food pellets were provided after injury, and all animals were monitored daily for well-being and weight changes.
For rotarod testing, the rod's rotation was programmed to accelerate from 0 to 50 rpm over the course of 300 seconds. Four trials were run at each selected time point after injury and the individual trial and mean times for each animal are recorded. […]

## CC(C)c1ccc2c(c1)c(SC(C)(C)C)c(CC(C)(C)C(=O)O)n2Cc1ccc(Cl)cc1 [MK-886, 1-[(4-Chlorophenyl)methyl]-3-[(1,1-dimethylethyl)thio]-α,α-dimethyl-5-(1-methylethyl)-1H-Indole-2-propanoic acid]
[1]
  cell death induced by TBI: significant reductions in cell death
[2]; Day 1, 15 swim trials, within sham group or within TBI group
  initial task learning versus vehicle: no significant differences
[2]; TBI animals, injection 30 minutes post-injury, Day 2
  errors per swim, last five swim trials of the reversal task: 1.26+/−0.700
[2]; TBI rats, injection 30 minutes post-injury, Day 2
  perseverance for the previous goal arm, swim 1 to swim 3 of reversal task: spent less time in the previous goal arm by swim 3
[2]; sham animals, injection 30 minutes post-injury, Day 2
  errors per swim, last five swim trials of the reversal task: 0.850+/−0.583
[3]
  AA production: neither of the FLAP inhibitors effected AA production
[4]
  vestibulomotor performance on the rotarod compared to vehicle: improved vestibulomotor performance
